For assay [1] the following is noted: delivery of siRNA; relative to KC2; cited from earlier work.
The test system of another assay is liver. Kind of assay: In vivo analysis in CD-1 mice: luciferase mRNA-LNP, luminescence in the liver. Particulars: LNP 50/10/38.5/1.5 mol % ionizable lipid/DSPC/chol/PEG-DMG, N/P 6, mRNA encoding luciferase 1 mg/kg intravenous, 4 hours post-injection (FIG. 2A). The method, then:
(§1) Lipids 1 or 2 described herein, DSPC, cholesterol, and PEG-DMG, were dissolved in ethanol at the appropriate ratios to a final concentration of 10 mM total lipid. Nucleic acid (siRNA or mRNA) was dissolved in an appropriate buffer such as 25 mM sodium acetate pH 4 or sodium citrate pH 4 to a concentration necessary to achieve the appropriate amine-to-phosphate ratios. The aqueous and organic solutions were mixed using a rapid-mixing device as described in Kulkarni et al., 2018, ACS Nano, 12:4787 and Kulkarni et al., 2017, Nanoscale, 36:133347 (each incorporated herein by reference) at a flow rate ratio of 3:1 (v/v; respectively) and a total flow rate of 20 mL/min. The resultant mixture was dialyzed directly against 1000-fold volume of PBS pH 7.4. All formulations were concentrated using an Amicon™ centrifugal filter unit and analysed using the methods described below. LNP-mRNA encoding firefly luciferase were injected intravenously (tail-vein) into 6-8 week old CD-1 mice. Four hours following injection, the animals were euthanized and the liver and spleen and isolated. Tissue was homogenized in Glo Lysis buffer and a luciferase assay performed using the Steady Glo Luciferase assay kit (as per manufacturers recommendations). LNP formulations containing 50/10/38.5/1.5 mol % of ionizable lipids/DSPC/chol/PEG-DMG with a nitrogen-to-phosphorous ratio (N/P) of 6 and mRNA encoding luciferase were tested for in vivo transfection efficiency in the liver and spleen after injection to CD-1 mice. The mRNA dose was 1 mg/kg. Luminescence intensity in the liver and spleen was measured at 4 hours post-injection. The ionizable lipids were 1 and 5-32 (Table 1).

The test system of another assay is spleen. The experiment in a line: In vivo analysis in CD-1 mice: luciferase mRNA-LNP, luminescence in the spleen. Particulars: LNP 50/10/38.5/1.5 mol % ionizable lipid/DSPC/chol/PEG-DMG, N/P 6, mRNA encoding luciferase 1 mg/kg intravenous, 4 hours post-injection (FIG. 2B). The method, then:
as §1

Regarding `CCCCC/C=C\C/C=C\CCCCCCCCC(CCCCCCCC/C=C\C/C=C\CCCCC)OC(=O)CCCN(C)C` [MC3, DLin-MC3-DMA], the “siRNA required, times less than KC2” value in assay [1] was “about 3 times”.

On to `CCCCCCCCCC(=O)OC(CCCCC(CCCCC(CSC1CCCCC1)OC(=O)CCCCCCCCC)OC(=O)CCCN(C)C)CSC1CCCCC1` (centres unmarked) [lipid 6, 1,13-bis(Cyclohexylthio)-7-((4-(dimethylamino)butanoyl)oxy)tridecane-2,12-diyl bis-(decanoate)], for which the “luminescence intensity per mg liver compared with the MC3 benchmark” value with liver is listed as “higher”. Also, the “luminescence intensity per mg spleen compared with the MC3 benchmark” value in the assay on spleen was “higher”.

On to `CCCCCCCCCC(=O)OC(CCCCCC(CCCCCC(CSCCCCCC)OC(=O)CCCCCCCCC)OC(=O)CCCN(C)C)CSCCCCCC` (centres unmarked) [lipid 7, 8-((4-(Dimethylamino)butanoyl)oxy)-1,15-bis(hexylthio)pentadecane-2,14-diyl bis(decanoate)], for which the “luminescence intensity per mg liver compared with the MC3 benchmark” value with liver is reported as “higher”. In the assay with spleen, the “luminescence intensity per mg spleen compared with the MC3 benchmark” value is on record as “higher”.

For the compound `CCCCCCSCC(CCCCCC(CCCCCC(CSCCCCCC)OC(=O)CCC1CCCCC1)OC(=O)CCCN(C)C)OC(=O)CCC1CCCCC1` (centres unmarked) [lipid 8, 8-((4-(Dimethylamino)butanoyl)oxy)-1,15-bis(hexylthio)pentadecane-2,14-diyl bis(3-cyclohexylpropanoate)], the “luminescence intensity per mg liver compared with the MC3 benchmark” value in the assay on liver is on record as “higher”. Also, the “luminescence intensity per mg spleen compared with the MC3 benchmark” value in the assay on spleen is “higher”.

Consider `CCCCCCCCCC(=O)OC(CCCCCC(CCCCCC(CSCCCCCC)OC(=O)CN(C)C(=O)CCCCC)OC(=O)CCCN(C)C)CSCCCCCC` (centres unmarked) [lipid 9, 8-((4-(dimethylamino)butanoyl)oxy)-14-((N-hexanoyl-N-methylglycyl)oxy)-1,15-bis-(hexylthio)pentadecan-2-yl decanoate], for which, in the assay on liver, the “luminescence intensity per mg liver compared with the MC3 benchmark” value is on record as “higher”. In addition, the “luminescence intensity per mg spleen compared with the MC3 benchmark” value with spleen is reported as “higher”.

As for `CCCCCCCCCC(=O)OC(CCCCCC(CCCCCC(CSC1CCCCC1)OC(=O)CCCCCCCCC)OC(=O)CCCN(C)C)CSC1CCCCC1` (centres unmarked) [lipid 10, 1,15-bis(cyclohexylthio)-8-((4-(dimethylamino)butanoyl)oxy)pentadecane-2,14-diyl bis(decanoate)], the “luminescence intensity per mg liver compared with the MC3 benchmark” value in the assay on liver was “higher”.

In the case of `CCCCCCCCC(=O)OC(CCCCCC(CCCCCC(CSC1CCCCC1)OC(=O)CCCCCCCC)OC(=O)CCCN(C)C)CSC1CCCCC1` (centres unmarked) [lipid 11, 1,15-bis(cyclohexylthio)-8-((4-(dimethylamino)butanoyl)oxy)pentadecane-2,14-diyl dinonanoate], the “luminescence intensity per mg liver compared with the MC3 benchmark” value in the assay with liver is given as “higher”.

In the case of `CCCCCCCCCC(=O)OC(CCCCC(CCCCC(CSCCCCC)OC(=O)CCCCCCCCC)N(C)CCCCO)CSCCCCC` (centres unmarked) [lipid 22, 7-((4-Hydroxybutyl)(methyl)amino)-1,13-bis(pentylthio)tridecane-2,12-diyl bis(decano-ate)], the “luminescence intensity per mg liver compared with the MC3 benchmark” value with liver is on record as “higher”. Moreover, in the assay with spleen, the “luminescence intensity per mg spleen compared with the MC3 benchmark” value was “higher”.

For `CCCCCCCCCC(=O)OC(CCCCC(CCCCC(CSCCCCCCC)OC(=O)CCCCCCCCC)N(C)CCCCO)CSCCCCCCC` (centres unmarked) [lipid 23, 1,13-bis(Heptylthio)-7-((4-hydroxybutyl)(methyl)amino)tridecane-2,12-diyl bis(decano-ate)], the “luminescence intensity per mg liver compared with the MC3 benchmark” value in the assay with liver is recorded as “higher”. For the same compound, the “luminescence intensity per mg spleen compared with the MC3 benchmark” value in the assay on spleen is recorded as “higher”.

For the compound `CCCCCCCCC(=O)OC(CCCCC(CCCCC(CSCCCCCCC)OC(=O)CCCCCCCC)N(C)CCCCO)CSCCCCCCC` (centres unmarked) [lipid 24, 1,13-bis(Heptylthio)-7-((4-hydroxybutyl)(methyl)amino)tridecane-2,12-diyl dinonano-ate], the “luminescence intensity per mg liver compared with the MC3 benchmark” value in the assay on liver is reported as “higher”. In the assay on spleen, the “luminescence intensity per mg spleen compared with the MC3 benchmark” value is on record as “higher”.

With `CCCCCCCCC(=O)OC(CCCCCC(CCCCCC(CSCCCCC)OC(=O)CCCCCCCC)N(C)CCCCO)CSCCCCC` (centres unmarked) [lipid 25, 8-((4-hydroxybutyl)(methyl)amino)-1,15-bis(pentylthio)pentadecane-2,14-diyl dinonano-ate], the “luminescence intensity per mg liver compared with the MC3 benchmark” value with liver was “higher”. For the same compound, the “luminescence intensity per mg spleen compared with the MC3 benchmark” value in the assay with spleen was “higher”.

Take `CCCCCCCCCC(=O)OC(CCCCCC(CCCCCC(CSCCCCC)OC(=O)CCCCCCCCC)N(C)CCCCO)CSCCCCC` (centres unmarked) [lipid 26, 8-((4-hydroxybutyl)(methyl)amino)-1,15-bis(pentylthio)pentadecane-2,14-diyl bis-(decanoate)]: the “luminescence intensity per mg liver compared with the MC3 benchmark” value in the assay with liver was “higher”. In addition, in the assay on spleen, the “luminescence intensity per mg spleen compared with the MC3 benchmark” value was “higher”.

For `CCCCCCCCCC(=O)OC(CCCCCC(CCCCCC(CSCCCCCC)OC(=O)CCCCCCCCC)N(C)CCCCO)CSCCCCCC` (centres unmarked) [lipid 27, 1,15-bis(Hexylthio)-8-((4-hydroxybutyl)(methyl)amino)pentadecane-2,14-diyl bis-(decanoate)], the “luminescence intensity per mg liver compared with the MC3 benchmark” value in the assay with liver is reported as “higher”. The “luminescence intensity per mg spleen compared with the MC3 benchmark” value with spleen is on record as “higher”.

For `CCCCCCCCCC(=O)OC(CCCCCC(CCCCCC(CSCCCCCC)OC(=O)CN(C)C(=O)CCCCC)N(C)CCCCO)CSCCCCCC` (centres unmarked) [lipid 30, 14-((N-hexanoyl-N-methylglycyl)oxy)-1,15-bis(hexylthio)-8-((4-hydroxybutyl)(methyl)-amino)pentadecan-2-yl decanoate], the “luminescence intensity per mg liver compared with the MC3 benchmark” value in the assay with liver is listed as “higher”. In addition, the “luminescence intensity per mg spleen compared with the MC3 benchmark” value with spleen was “higher”.

Consider `CCCCCCCCC(=O)OC(CCCCCC(CCCCCC(CSCCCCCCC)OC(=O)CCCCCCCC)N(C)CCCCO)CSCCCCCCC` (centres unmarked) [lipid 31, 1,15-bis(Heptylthio)-8-((4-hydroxybutyl)(methyl)amino)pentadecane-2,14-diyl dinonanoate], for which, in the assay with liver, the “luminescence intensity per mg liver compared with the MC3 benchmark” value is given as “higher”. For the same compound, the “luminescence intensity per mg spleen compared with the MC3 benchmark” value in the assay on spleen is “higher”.

On to `CCCCCCCCC(=O)OC(CCCCCC(CCCCCC(CSC1CCCCC1)OC(=O)CCCCCCCC)N(C)CCCCO)CSC1CCCCC1` (centres unmarked) [lipid 32, 1,15-bis(Cyclohexylthio)-8-((4-hydroxybutyl)(methyl)amino)pentadecane-2,14-diyl dinonanoate], for which the “luminescence intensity per mg liver compared with the MC3 benchmark” value in the assay on liver is listed as “higher”. For the same compound, the “luminescence intensity per mg spleen compared with the MC3 benchmark” value in the assay with spleen is “higher”.

Values taken from patent US20260102347A1, “Sulfur-Containing Ionizable Lipids for the Delivery of Therapeutic Agents” (NanoVation Therapeutics Inc., priority 2022, published 2026).
